Data taken from US6403644B1, “Method of treating disease with sulfonylamino acid derivatives” (Ono Pharmaceutical Co., Ltd., priority 1995, dated 2002).

Target: T1, gelatinase A (Homo sapiens, UniProt P08253)
T1 construct: endogenous in cells; host or cells: human normal skin dermal fibroblasts (HNDF)
T1 sequence (P08253 110-660): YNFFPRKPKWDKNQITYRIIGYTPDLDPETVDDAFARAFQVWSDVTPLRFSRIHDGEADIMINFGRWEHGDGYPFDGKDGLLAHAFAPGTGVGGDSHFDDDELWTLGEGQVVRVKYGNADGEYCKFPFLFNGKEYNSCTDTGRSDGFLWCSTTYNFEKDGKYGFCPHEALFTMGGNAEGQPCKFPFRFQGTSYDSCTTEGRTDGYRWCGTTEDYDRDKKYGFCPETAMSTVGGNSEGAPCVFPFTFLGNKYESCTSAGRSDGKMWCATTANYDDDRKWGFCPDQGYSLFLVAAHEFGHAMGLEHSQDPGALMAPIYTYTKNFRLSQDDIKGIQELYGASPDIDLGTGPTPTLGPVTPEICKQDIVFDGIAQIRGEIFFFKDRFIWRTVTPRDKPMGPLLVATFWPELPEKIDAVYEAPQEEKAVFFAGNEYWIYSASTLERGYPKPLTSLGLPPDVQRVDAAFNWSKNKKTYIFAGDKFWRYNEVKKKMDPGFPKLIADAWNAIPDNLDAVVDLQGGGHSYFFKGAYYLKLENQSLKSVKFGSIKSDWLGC
Assay: Inhibitory activity against gelatinase A (FITC-labeled gelatin degradation)
Type: biochemical
Details: progelatinase A from human normal skin dermal fibroblasts (HNDF), APMA-activated, 2 hours at 37° C., read-out: IC50 for inhibition of gelatinase A activity
Procedure: The potency of inhibitory activity against each matrix metalloproteinases is confirmed as below. The IC50 value for inhibition of gelatinase A activity is determined as follows.
(1) Inhibitory activity against gelatinase A
The progelatinase A (7 μl; in assay buffer (90 μl)) was purified from human normal skin dermal fibroblasts (HNDF). It was activated by the addition of 10 mM of p-aminophenylmercuric acetate (APMA) (10 μl) for 1 hour at 37° C.
The solution of activated gelatinase A (7 μl/tube, 98 μl) was mixed with various concentrations of the test compound or dimethylsulfoxide (2 μl) and gelatin (100 μl) labeled with 0.05% fluorescein isothiocyanate (FITC) and incubated for 2 hours at 37° C. The reaction was terminated by the addition of 0.1M Tris-HCl (pH9.5) containing 94.7% ethanol (750 μl). The mixture was stirred and then allowed to stand for 30 minutes at 0° C. The mixture was centrifuged for 30 minutes at 900×g. The IC50 was determined by measuring the fluorescent intensity in supernatant (Ex=495 nm, and Em=520 nm).

Compound | IC50 [nM]
O=C(O)CNS(=O)(=O)c1ccc(NC(=O)c2ccccc2)cc1 [Example 2(10), N-[[4-(Benzoylamino)phenyl]sulfonyl]glycine] | 660
O=C(O)CNS(=O)(=O)c1ccc(NC(=O)c2ccc(F)cc2)cc1 [Example 2(11), N-[[4-(4-Fluorobenzoylamino)phenyl]sulfonyl]glycine] | 800
N=C(N)c1ccc(OC(=O)c2ccc(S(=O)(=O)N[C@@H](Cc3ccccc3)C(=O)O)cc2)cc1 [Example 10(1), N-[[4-(4-Amidinophenoxycarbonyl)phenyl]sulfonyl]-L-phenylalanine methansulfonate] | 700
Cc1ccc(C(=O)Nc2ccc(S(=O)(=O)NCC(=O)O)cc2)cc1 [compound 2] | 110
O=C(O)CNS(=O)(=O)c1ccc(OC(=O)c2ccccc2)cc1 [compound 6] | 420

Stronger by IC50, values ahead:

IC50 [nM] | Compound
13 | CCCCCc1ccc(C(=O)Nc2ccc(S(=O)(=O)NCC(=O)O)cc2)cc1 [Example 2(35), N-[[4-(4-Pentylbenzoylamino)phenyl]sulfonyl]glycine]
2.3 | CCCCCc1ccc(C(=O)Nc2ccc(S(=O)(=O)N[C@H](Cc3ccccc3)C(=O)O)cc2)cc1 [Example 2(63), N-[[4-(4-Pentylbenzoylamino)phenyl]sulfonyl]-D-phenylalanine]
2.7 | Cc1ccc(C(=O)Nc2ccc(S(=O)(=O)N[C@H](Cc3c[nH]c4ccccc34)C(=O)O)cc2)cc1 [Example 3(13), N-[[4-(p-Toluoylamino)phenyl]sulfonyl]-D-tryptophan]
